Entries after “also recorded” stand apart in the source; their conditions may differ. Counter-ions that a name gives are not always drawn. Like-named read-outs stand apart in the source and are kept apart here.
Experiments:
head-twitch response = experiment: Head-twitch response; format: in vivo, mouse
[1] = biological target: T1, psychLight2 (PSYLI2 cells) (Homo sapiens, UniProt P28223, DEL264-312/E264Q/I181A/I315S/INS316[…]/S314L); format: cell-based
psychLight2 [2] = format: cell-based, mouse
[3] = biological target: psychLight2 (HEK293T cell line stably expressing psychLight2, PSYLI2) (Homo sapiens, UniProt P28223, DEL264-312/E264Q/I181A/I315S/INS316[…]/S314L); experiment: PSYLI2 high-content imaging assay, agonist mode; format: cell-based
Sequence of psychLight2 (HEK293T cell line stably expressing psychLight2, PSYLI2) (P28223 1-471 with tags or gaps with the stated changes): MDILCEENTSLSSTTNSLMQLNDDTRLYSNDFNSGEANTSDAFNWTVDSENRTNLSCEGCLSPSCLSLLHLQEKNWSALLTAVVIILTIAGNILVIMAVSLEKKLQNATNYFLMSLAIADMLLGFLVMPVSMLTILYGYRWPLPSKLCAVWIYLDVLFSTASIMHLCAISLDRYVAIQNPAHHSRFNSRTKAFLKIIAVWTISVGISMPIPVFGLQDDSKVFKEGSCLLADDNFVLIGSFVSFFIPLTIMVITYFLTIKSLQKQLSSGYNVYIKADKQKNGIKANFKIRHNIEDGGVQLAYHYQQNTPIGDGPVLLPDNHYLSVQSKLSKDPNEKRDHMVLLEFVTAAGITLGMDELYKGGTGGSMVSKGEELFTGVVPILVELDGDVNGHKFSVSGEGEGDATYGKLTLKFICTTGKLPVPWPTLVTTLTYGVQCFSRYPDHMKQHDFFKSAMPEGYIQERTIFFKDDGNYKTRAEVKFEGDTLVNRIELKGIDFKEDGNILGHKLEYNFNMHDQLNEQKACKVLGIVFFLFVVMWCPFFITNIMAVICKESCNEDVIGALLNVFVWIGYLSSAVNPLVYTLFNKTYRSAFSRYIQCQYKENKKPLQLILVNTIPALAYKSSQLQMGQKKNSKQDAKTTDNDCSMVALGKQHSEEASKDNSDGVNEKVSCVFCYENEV

[4] = biological target: psychLight1 (human 5-HT2AR-based fluorescent sensor) (Homo sapiens, UniProt P28223, DEL264-312/E264Q/I181A/I315S/INS316[…]/S314L); format: cell-based
Sequence of psychLight1 (human 5-HT2AR-based fluorescent sensor) (P28223 1-471 with tags or gaps with the stated changes): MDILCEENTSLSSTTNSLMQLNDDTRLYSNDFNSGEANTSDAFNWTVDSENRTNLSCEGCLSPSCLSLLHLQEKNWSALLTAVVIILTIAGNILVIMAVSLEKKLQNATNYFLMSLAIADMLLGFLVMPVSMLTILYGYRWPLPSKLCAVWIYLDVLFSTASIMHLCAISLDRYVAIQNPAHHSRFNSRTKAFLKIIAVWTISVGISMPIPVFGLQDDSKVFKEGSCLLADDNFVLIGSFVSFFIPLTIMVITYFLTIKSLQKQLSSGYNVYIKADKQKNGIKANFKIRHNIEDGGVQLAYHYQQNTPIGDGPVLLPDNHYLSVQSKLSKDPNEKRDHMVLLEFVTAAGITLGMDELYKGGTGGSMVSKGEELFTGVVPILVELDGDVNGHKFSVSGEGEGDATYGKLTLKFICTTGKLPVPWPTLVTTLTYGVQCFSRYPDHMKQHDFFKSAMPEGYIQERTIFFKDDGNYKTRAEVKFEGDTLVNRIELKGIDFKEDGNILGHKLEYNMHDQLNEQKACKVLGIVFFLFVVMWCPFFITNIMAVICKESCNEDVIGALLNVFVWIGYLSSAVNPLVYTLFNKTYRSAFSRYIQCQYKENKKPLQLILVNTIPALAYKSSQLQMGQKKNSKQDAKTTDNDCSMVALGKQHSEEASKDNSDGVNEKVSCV

psychLight2 [5] = biological target: psychLight2 (Homo sapiens, UniProt P28223, DEL264-312/E264Q/I181A/I315S/INS316[…]/S314L); conditions: mouse
[6] = tested on: VMAT2 heterozygous (VMAT2-HET) and WT mice; experiment: Sucrose preference test; format: in vivo, mouse; conditions: 15 mg/kg i.p., single administration
locomotion = experiment: Locomotion assay; format: in vivo, mouse; conditions: C57BL/6J mice, i.p., n = 4 mice
C57BL/6J mice = experiment: Forced swim test; format: in vivo, mouse
[7] = tested on: cultured rat embryonic cortical neurons; experiment: Dendritogenesis in cultured rat embryonic cortical neurons; format: cell-based; conditions: Sholl analysis, Nmax
[8] = biological target: T1, psychLight2 (PSYLI2 cells); format: cell-based; remark: listed apart in the source
[9] = tested on: endogenous 5-HT release (psychLight2 response); design: species or system mouse; conditions: electrical stimulation, incubation with 50 μM
[10] = C57BL/6J mice, i.p., dose-response, n = 4 mice
[11] = 10 μM compound treatment (Fig. 4C)

Q: `CN(C)CCc1c[nH]c2ccc(Br)cc12` [5-Br-DMT, 5-bromo-N,N-dimethyltryptamine] was tested. Which head-twitch response (head-twitch response; [10]) did it give?
A: failed to induce HTRs at any dose

Q: What about the ligand score [1] of the same compound?
A: negative

Q: Which head-twitch response (head-twitch response; [10]) does the source give for `CN(C)CCc1c[nH]c2ccc(Cl)cc12` [5-Cl-DMT, 5-chloro-N,N-dimethyltryptamine] here?
A: produced robust HTRs

Q: And the ligand score [1]?
A: positive

Q: `CN(C)CCc1c[nH]c2ccc(F)cc12` [5-F-DMT, 5-flouo-N,N-dimethyltryptamine] was tested. Which head-twitch response (head-twitch response; mouse, in vivo, ip) did it give?
A: produced robust HTRs

Q: And the ligand score [1]?
A: positive

Q: With `NCCc1c[nH]c2ccc(O)cc12` [5-HT, serotonin] as the compound, how does the ΔpL2/tdT (psychLight2 [2]) read?
A: 111.1 ± 1.8%

Q: What about the “PSYLI2 fluorescence ΔF/F” value [3] of the same compound?
A: 46.3 ± 1.4%

Q: And the PSYLI2 response [3]?
A: 44.8 ± 0.8%

Q: What about the “psychLight2 fluorescence response (ΔF/F)” value [3] of the same compound?
A: 38.2 ± 2.4%

Q: What about the “psychLight1 fluorescence response (ΔF/F)” value [4] of the same compound?
A: 77.3 ± 2.4%

Q: For `COc1ccc2[nH]cc(CCN(C)C)c2c1` [5-MeO-DMT, 5-methoxy-N,N-dimethyltryptamine], which “psychLight2 fluorescence in vivo” value (psychLight2 [5]) is on record?
A: sharp increase in fluorescence

Q: What about the “head-twitch response during fiber photometry” value (head-twitch response; 50 mg/kg, i.p., within 1 min of administration, n = 3 animals) of the same compound?
A: concomitant increase in HTR

Q: What about the “psychLight2 fluorescence response (ΔF/F)” value [3] of the same compound?
A: 24.1 ± 4.6%

Q: What about the Emax [4] of the same compound?
A: 48.4%

Q: What about the “psychLight1 fluorescence response (ΔF/F)” value [4] of the same compound?
A: 48.4 ± 3.1%

Q: Which “psychLight2 fluorescence response (ΔF/F)” value ([3]; 10 μM, high content imager (Suppl. Fig. 3C)) does the source give for `COc1ccc2c(CCN(C)C)c[nH]c2c1` [6-MeO-DMT, 6-methoxy-N,N-dimethyltryptamine] here?
A: −3.0 ± 2.7%

Q: What about the “competition with / block of 5-HT-induced activation of psychLight” value [4] of the same compound?
A: can compete off 5-HT resulting in a reduction in psychLight fluorescence; also recorded: capable of binding to the receptor despite lacking efficacy

Q: And the “psychLight1 fluorescence response (ΔF/F)” value ([4]; 10 μM, confocal microscope, n = 3)?
A: −1.1 ± 4.6%

Q: `COc1ccc2c(ccn2C[C@@H](C)N(C)C)c1` [AAZ-A-154] was tested. Which “sucrose preference in WT mice” value [6] did it give?
A: did not modify sucrose preference in the WT animals

Q: And the “sucrose preference in VMAT2-HET mice” value ([6]; 1% sucrose)?
A: exhibited a sucrose preference that was indistinguishable from WT controls

Q: And the “persistence of anti-anhedonic effect” value ([6]; VMAT2-HET mice)?
A: at least 12 days

Q: And the head-twitch response (head-twitch response; [10])?
A: failed to produce any head-twitches, even up to doses as high as 100 mg/kg

Q: What about the locomotion (locomotion) of the same compound?
A: only decreases locomotion at a very high dose (100 mg/kg)

Q: And the “immobility in the forced swim test” value (C57BL/6J mice; 20 mg/kg i.p., single administration, n = 12)?
A: decreased immobility

Q: What about the “onset and duration of antidepressant-like effects in FST” value (C57BL/6J mice; mouse, in vivo) of the same compound?
A: both rapid (30 min) and long-lasting (1 week) antidepressant-like effects

Q: And the dendritic arbor complexity [7]?
A: increases dendritic arbor complexity to a comparable extent as the fast-acting antidepressant ketamine

Q: How did the “PSYLI2 fluorescence ΔF/F” value [3, 11] turn out when `CN(C)CCc1c[nH]c2ccc(O)cc12` [BUFO, N,N-dimethylserotonin] was run?
A: 22.3 ± 2.8%

Q: With `CN(C)CCc1c[nH]c2ccccc12` [DMT, N,N-dimethyltrytamine] as the compound, how does the Emax [4] read?
A: 12.4%

Q: What about the EC50 ([4]; read-out: half maximal effective concentration (EC50)) of the same compound?
A: 627 nM

Q: How did the “PSYLI2 fluorescence ΔF/F” value [3, 11] turn out when `CNCCc1c[nH]c2ccc(O)cc12` [N-5-HT, N-methylserotonin] was run?
A: 24.6 ± 1.7%

Q: How did the Tauoff (psychLight2 [2]) turn out when `CP(C)C.F[P-](F)(F)(F)(F)F.F[P-](F)(F)(F)(F)F.NCCc1c[nH]c2ccc(O)cc12.[Ru+2].c1ccc(-c2ccccn2)nc1.c1ccc(-c2ccccn2)nc1` [RuBi–5-HT] was run?
A: 5.4 ± 0.9 ms

Q: What about the “peak ΔpL2/tdT normalized to baseline” value (psychLight2 [2]) of the same compound?
A: 111.2 ± 0.7%

Q: `CN1CCc2cccc3c2[C@H]1Cc1ccc(O)c(O)c1-3` [apomorphine, R-(−)-apomorphine hydrochloride hemihydrate] was tested. Which “Schild regression analysis (pA2)” value [8] did it give?
A: potent psychLight competitive antagonists

Q: `CN(C)CCC[C@@]1(c2ccc(F)cc2)OCc2cc(C#N)ccc21` [escitalopram] was tested. Which “amplitude of the psychLight2 response ΔF/F” value [9] did it give?
A: 18.4 ± 4.3%

Q: For `O=C(c1ccc(F)cc1)C1CCN(CCn2c(=O)[nH]c3ccccc3c2=O)CC1` [ketanserin], which “psychLight2 fluorescence in vivo” value (psychLight2 [5]) is on record?
A: decreased

Q: And the PSYLI2 response [3]?
A: −12.7 ± 0.5%

Q: And the “psychLight2 fluorescence response (ΔF/F)” value [3]?
A: −3.5 ± 1.6%

Q: What about the “competition with / block of 5-HT-induced activation of psychLight” value [4] of the same compound?
A: able to block 5-HT-induced activation of psychLight

Q: What about the “effect on psychLight1 fluorescence” value [4] of the same compound?
A: either had minimal effect on psychLight1 fluorescence or slightly quenched the sensor

Q: What about the “psychLight1 fluorescence response (ΔF/F)” value [4] of the same compound?
A: −1.7 ± 0.3%

Q: How did the ligand score [1] turn out when `c1ccc(C2(N3CCCCC3)CCCCC2)cc1` [phencyclidine] was run?
A: ~0

Q: With `COC(=O)[C@@H]1C[C@H](OC(C)=O)C(=O)[C@H]2[C@@]1(C)CC[C@H]1C(=O)O[C@H](c3ccoc3)C[C@]21C` [salvinorin A] as the compound, how does the ligand score [1] read?
A: ~0

Q: With `NCCc1c[nH]c2ccccc12` [tryptamine] as the compound, how does the “PSYLI2 fluorescence ΔF/F” value [3] read?
A: produces a robust response
